According to patent US9744181B2, “Compositions and methods for combination antiviral therapy” (priority 2003, dated 2017):
Counter-ions that a name gives are not always drawn.

Experiments:
[1] = combination tablet, six months at 40° C./75% RH; for loss in % label strength: with desiccant, significant defined as ≧5% degradation
[2] = tested on: HIV; details: patients, once-a-day dose of 200 mg
[3] = tested on: HIV-1; details: in combination with recombinant soluble CD4 castanosperinine and recombinant interferon-α; cited from earlier work
[4] = tested on: normal human bone marrow progenitor cells; details: AZT together with recombinant interferon-α; cited from earlier work
[5] = tested on: HIV replication; details: in combination with PMPA, d4T, ddC, nelfinavir, ritonavir, and saquinavir; cited from earlier work

## Nc1nc(=O)n([C@@H]2CS[C@H](CO)O2)cc1F (single isomer, unassigned) [Emtricitabine]
[1]
  loss in % label strength: No significant loss
[2]
  average reduction of viral load: 99%

## Cc1cn([C@H]2C[C@H](N=[N+]=[N-])[C@@H](CO)O2)c(=O)[nH]c1=O [AZT, 3′-azido, 3′-deoxythymidine]
[3]
  synergy of antiviral activity in vitro: synergistic antiviral activity
[4]
  cytotoxic effect: increased cytotoxic effect

## CC(C)(C)C(=O)OCOP(=O)(COCCn1cnc2c(N)ncnc21)OCOC(=O)C(C)(C)C [Adefovir dipivoxil]
[5]
  synergy of inhibition of HIV replication: minor to moderate synergistic inhibition

## CC(C)OC(=O)OCOP(=O)(CO[C@H](C)Cn1cnc2c(N)ncnc21)OCOC(=O)OC(C)C [Tenofovir disoproxil fumarate, 9-[(R)-2-[[bis[[(isopropoxycarbonyl)oxy]methoxy]phosphinyl]methoxy]propyl]adenine fumarate (1:1)]
[1]; packaged and stored with 3 grams of desiccant
  increase in the total degradation products: 1.5%
[1]
  loss in % label strength: No significant loss
